The text below walks through data of patent publication US20240343762A1, “USE OF PROTON PUMP MODULATOR IN PREPARING REAGENT” (SHANGHAI QUIETD BIOTECHNOLOGY CO. LTD., priority 2021, published 2024).

In experiment [1] the test system is APP/PS1 transgenic AD mice. Kind of experiment: Morris water maze test in APP/PS1 transgenic AD mice. The note with it: continuously for 1 week, mice of 10 months old. It counts as in vivo, mouse. The protocol:
Morris water maze referred to the test solutions recorded in Qing-Feng Wu et al., Fibroblast growth factor 13 is a microtubule-stabilizing protein modulating neuronal polarization and migration. Cell. 149, 1549-1564 (2012). The test was carried out in a circular pool filled with water (120 cm in diameter, 30 cm in depth, titanium dioxide was added to make opaque, kept temperature at 21±1° C.) in a room with a fixed environment. The test was divided into an adaptation period (1 day), a training period (5-6 days) and a testing period (1 day). Adaptation period: the platform was placed 0.5 cm above the water surface, and the mice were guided to the platform. Training day: the platform was placed 0.5 cm underwater, and the mice were trained to find the platform. […] Training were performed 4 times a day, 4 times a day (between 8:00 a.m. to 4:00 p.m.), the mice were dropped from different water points each time, each training was performed at interval of at least 30 min, a total of 6 days, and the order of water points was different every day. Test Day: test was performed 24 h after the end of the training day. […] The footage was analyzed with Etho Vision XT 14 software, recording parameters including the escape latency of entering the target quadrant, the number of platform crossings, and the dwell time in the target quadrant. […]

Experiment [2] addresses T1, murine ATP6V1B2 full-length protein (Mus musculus, UniProt P62814).
T1 construct: expressed in transfected cells; host or cells: 293 cells
Description: Co-immunoprecipitation of EGFP-tagged QD202 with Myc-tagged ATP6V1B2 full-length protein in 293 cells. It counts as binding. The text has this:
Expression plasmids including murine ATP6V1B2 full-length sequence, 1-286aa truncated sequence or 1-172aa truncated sequence with a Myc tag are respectively constructed; the amino acid sequence of the murine ATP6V1B2 full-length sequence was as set forth in SEQ ID NO. 8, the amino acid sequence of the murine ATP6V1B21-286aa was as set forth in SEQ ID NO. 10; the amino acid sequence of the murine ATP6V1B21-172aa as set forth in as SEQ ID NO. 11; and these plasmids were respectively called as an ATP6V1B2 full-length expression plasmid, an ATP6V1B21-286aa expression plasmid and an ATP6V1B21-172aa expression plasmid. Meanwhile, a QD202 expression plasmid with an EGFP tag was constructed. […]
Then a Protein G agarose bead was added to be bound to the Myc antibody, so as to precipitate the ATP6V1B2 full-length protein, the 1-286aa truncated sequence or the 1-172aa truncated sequence, and proteins which were bound to one another, and finally the proteins subjected to co-immunoprecipitation was detected by virtue of an immunoblotting method.

T1 sequence (P62814 whole entry): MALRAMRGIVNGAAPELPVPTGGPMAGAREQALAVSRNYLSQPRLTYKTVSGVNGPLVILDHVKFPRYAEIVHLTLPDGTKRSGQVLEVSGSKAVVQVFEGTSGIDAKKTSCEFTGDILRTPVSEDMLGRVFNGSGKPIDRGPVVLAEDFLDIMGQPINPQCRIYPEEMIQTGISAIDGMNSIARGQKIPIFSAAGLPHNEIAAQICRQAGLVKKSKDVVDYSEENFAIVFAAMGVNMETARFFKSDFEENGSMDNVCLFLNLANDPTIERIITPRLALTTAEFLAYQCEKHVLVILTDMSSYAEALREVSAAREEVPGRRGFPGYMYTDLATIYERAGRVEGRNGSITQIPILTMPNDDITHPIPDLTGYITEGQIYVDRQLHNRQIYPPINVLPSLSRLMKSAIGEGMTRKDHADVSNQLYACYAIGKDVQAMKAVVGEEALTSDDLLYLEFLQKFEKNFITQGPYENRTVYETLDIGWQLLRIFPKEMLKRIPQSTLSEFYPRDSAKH

Regarding “QD202: polypeptide synthesized according to the amino acid sequence as set forth in SEQ ID NO. 1 (YGRKKRRQRRRSPVDVVCS; QD202)”, the “learning and cognitive functions in water maze behavior” value is “obvious improvement of learning and cognitive functions” in experiment [1] (intragastric, 6.25 mg/kg); “obvious improvement on learning and cognitive functions” in experiment [1] (intravenous, 1.25 mg/kg). Also, the “binding to ATP6V1B2 full-length protein by co-immunoprecipitation” value in experiment [2] (293 cells, Myc antibody, immunoblotting) is on record as “only the full-length ATP6V1B2 protein can be combined”. Further, the “binding site of ATP6V1B2 and QD202” value in experiment [2] (concluded from full-length versus truncated sequences) is 288th amino acid to 512th amino acid.
